Results reported in PubChem BioAssay AID2060884 (Molecular Pharmacology Branch, DTP, NCI, 2025).
Several values for one entry are separate records, joined by “and”; a condition that tells them apart may be missing. Equal entries are not always repeated.

Test system: NCI-H929 complex spheroids, viability % test/control
Assay: Anticancer human tumor NCI-H929 cell line growth inhibition [RAS];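 further: compound exposure lasted seven days before viability was read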;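 on viability, T/C: 100% = DMSO vehicle control viability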
Settings: for viability, T/C: stronger effect = lower value
In short: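 Multi-cell-type spheroids: tumor cells plus HUVEC endothelial cells and mesenchymal stem cells. RAS-pathway inhibitors were combined with targeted agents, each dosed in half-log steps down from clinical Cmax, or from 10 microM when Cmax was unknown.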

For `CCN1CCN(Cc2ccc(Nc3ncc(F)c(-c4cc(F)c5nc(C)n(C(C)C)c5c4)n3)nc2)CC1` + CCn1c(-c2cccnc2C(C)OC)c2c3cc(ccc31)N1CCOC(CC(NC(=O)C(C(C)C)N(C)C(=O)C3(F)CCN(C(=O)C#CC(C)(C)N(C)C)CC3)C(=O)N3CCCC(N3)C(=O)OCC(C)(C)C2)C1, the IC50 (curve of first compound, second compound 0.000949 µM) was 776 nM, the IC50 (curve of first compound, second compound 0.003 µM) was 746 nM and the IC50 (curve of first compound, second compound 0.00949 µM) was 814 nM. It also gave an IC50 (curve of first compound, second compound 0.03 µM) of 734 nM, an IC50 (curve of first compound, second compound 0.0949 µM) of 662 nM and an IC50 (curve of first compound, second compound 0.3 µM) of 619 nM. For the same molecule, the viability, T/C (second compound 0.000949 µM, first compound 0.00316 µM) was 105%, the viability, T/C (second compound 0.000949 µM, first compound 0.01 µM) was 97.9% and the viability, T/C (second compound 0.000949 µM, first compound 0.0316 µM) was 105%. For the same molecule, the viability, T/C (second compound 0.000949 µM, first compound 0.1 µM) was 101%, the viability, T/C (second compound 0.000949 µM, first compound 0.316 µM) was 104% and the viability, T/C (second compound 0.000949 µM, first compound 1 µM) was 35.1%. For the same molecule, the viability, T/C (second compound 0.003 µM, first compound 0.00316 µM) was 103%, the viability, T/C (second compound 0.003 µM, first compound 0.01 µM) was 101% and the viability, T/C (second compound 0.003 µM, first compound 0.0316 µM) was 103%. The viability, T/C (second compound 0.003 µM, first compound 0.1 µM) was 105%, the viability, T/C (second compound 0.003 µM, first compound 0.316 µM) was 106% and the viability, T/C (second compound 0.003 µM, first compound 1 µM) was 31.7%. It also gave a viability, T/C (second compound 0.00949 µM, first compound 0.00316 µM) of 96.8%, a viability, T/C (second compound 0.00949 µM, first compound 0.01 µM) of 104% and a viability, T/C (second compound 0.00949 µM, first compound 0.0316 µM) of 99.9%. For the same molecule, the viability, T/C (second compound 0.00949 µM, first compound 0.1 µM) was 104%, the viability, T/C (second compound 0.00949 µM, first compound 0.316 µM) was 107% and the viability, T/C (second compound 0.00949 µM, first compound 1 µM) was 38.6%. For the same molecule, the viability, T/C (second compound 0.03 µM, first compound 0.00316 µM) was 97.4%, the viability, T/C (second compound 0.03 µM, first compound 0.01 µM) was 101% and the viability, T/C (second compound 0.03 µM, first compound 0.0316 µM) was 106%. The viability, T/C (second compound 0.03 µM, first compound 0.1 µM) was 101%, the viability, T/C (second compound 0.03 µM, first compound 0.316 µM) was 108% and the viability, T/C (second compound 0.03 µM, first compound 1 µM) was 30.8%. It also gave a viability, T/C (second compound 0.0949 µM, first compound 0.00316 µM) of 99.4%, a viability, T/C (second compound 0.0949 µM, first compound 0.01 µM) of 99.5% and a viability, T/C (second compound 0.0949 µM, first compound 0.0316 µM) of 102%. The viability, T/C (second compound 0.0949 µM, first compound 0.1 µM) was 103%, the viability, T/C (second compound 0.0949 µM, first compound 0.316 µM) was 104% and the viability, T/C (second compound 0.0949 µM, first compound 1 µM) was 21.2%. For the same molecule, the viability, T/C (second compound 0.3 µM, first compound 0.00316 µM) was 98.7%, the viability, T/C (second compound 0.3 µM, first compound 0.01 µM) was 104% and the viability, T/C (second compound 0.3 µM, first compound 0.0316 µM) was 105%. The viability, T/C (second compound 0.3 µM, first compound 0.1 µM) was 106%, the viability, T/C (second compound 0.3 µM, first compound 0.316 µM) was 109% and the viability, T/C (second compound 0.3 µM, first compound 1 µM) was 11.2%.
In the case of `C=CC(=O)Nc1cc(Nc2nccc(-c3cn(C)c4ccccc34)n2)c(OC)cc1N(C)CCN(C)C`, the viability, T/C (compound 0.00316 µM) is reported as 103% (2×) and 109% and 105%, the viability, T/C (compound 0.01 µM) is reported as 99.4% [middle of 4 runs] and the viability, T/C (compound 0.0316 µM) is reported as 107% [middle of 4 runs]. For the same molecule, the viability, T/C (compound 0.1 µM) was 99% [middle of 4 runs], the viability, T/C (compound 0.316 µM) was 105% [middle of 4 runs] and the viability, T/C (compound 1 µM) was 105% [middle of 4 runs]. The IC50 (curve of compound) was > 1000 nM.
`CC1(O)CCCC1n1c(=O)c(C(F)F)cc2cnc(NC3CCN(S(C)(=O)=O)CC3)nc21` (stereo unspecified) + C=CC(=O)N1CCN(c2nc(OCC3CCCN3C)nc3c(F)c(-c4nc(N)cc(C)c4C(F)(F)F)c(Cl)cc23)C(C)C1 showed an IC50 (curve of first compound, second compound 0.00316 µM) of 184 nM, an IC50 (curve of first compound, second compound 0.01 µM) of 190 nM and an IC50 (curve of first compound, second compound 0.0316 µM) of 189 nM. The IC50 (curve of first compound, second compound 0.1 µM) was 192 nM, the IC50 (curve of first compound, second compound 0.316 µM) was 184 nM and the IC50 (curve of first compound, second compound 1 µM) was 182 nM. It also gave a viability, T/C (second compound 0.00316 µM, first compound 0.0316 µM) of 115%, a viability, T/C (second compound 0.00316 µM, first compound 0.1 µM) of 101% and a viability, T/C (second compound 0.00316 µM, first compound 0.316 µM) of 4.56%. For the same molecule, the viability, T/C (second compound 0.00316 µM, first compound 1 µM) was 8.72%, the viability, T/C (second compound 0.00316 µM, first compound 3.16 µM) was 2.59% and the viability, T/C (second compound 0.00316 µM, first compound 10 µM) was 0.82%. For the same molecule, the viability, T/C (second compound 0.01 µM, first compound 0.0316 µM) was 112%, the viability, T/C (second compound 0.01 µM, first compound 0.1 µM) was 108% and the viability, T/C (second compound 0.01 µM, first compound 0.316 µM) was 3.89%. The viability, T/C (second compound 0.01 µM, first compound 1 µM) was 8.77%, the viability, T/C (second compound 0.01 µM, first compound 3.16 µM) was 3.05% and the viability, T/C (second compound 0.01 µM, first compound 10 µM) was 0.57%. It also gave a viability, T/C (second compound 0.0316 µM, first compound 0.0316 µM) of 107%, a viability, T/C (second compound 0.0316 µM, first compound 0.1 µM) of 107% and a viability, T/C (second compound 0.0316 µM, first compound 0.316 µM) of 3.77%. The viability, T/C (second compound 0.0316 µM, first compound 1 µM) was 9.13%, the viability, T/C (second compound 0.0316 µM, first compound 3.16 µM) was 2.62% and the viability, T/C (second compound 0.0316 µM, first compound 10 µM) was 0.19%. For the same molecule, the viability, T/C (second compound 0.1 µM, first compound 0.0316 µM) was 109%, the viability, T/C (second compound 0.1 µM, first compound 0.1 µM) was 109% and the viability, T/C (second compound 0.1 µM, first compound 0.316 µM) was 4.89%. For the same molecule, the viability, T/C (second compound 0.1 µM, first compound 1 µM) was 8.17%, the viability, T/C (second compound 0.1 µM, first compound 3.16 µM) was 2.43% and the viability, T/C (second compound 0.1 µM, first compound 10 µM) was 0.18%. It also gave a viability, T/C (second compound 0.316 µM, first compound 0.0316 µM) of 113%, a viability, T/C (second compound 0.316 µM, first compound 0.1 µM) of 101% and a viability, T/C (second compound 0.316 µM, first compound 0.316 µM) of 4.58%. For the same molecule, the viability, T/C (second compound 0.316 µM, first compound 1 µM) was 9.4%, the viability, T/C (second compound 0.316 µM, first compound 3.16 µM) was 2.18% and the viability, T/C (second compound 0.316 µM, first compound 10 µM) was 0.46%. The viability, T/C (second compound 1 µM, first compound 0.0316 µM) was 121%, the viability, T/C (second compound 1 µM, first compound 0.1 µM) was 99.8% and the viability, T/C (second compound 1 µM, first compound 0.316 µM) was 4.25%. For the same molecule, the viability, T/C (second compound 1 µM, first compound 1 µM) was 7.11%, the viability, T/C (second compound 1 µM, first compound 3.16 µM) was 2.09% and the viability, T/C (second compound 1 µM, first compound 10 µM) was 0.13%.
